Reference: patent publication US20100063085A1, “METHOD OF TREATING LEARNING IMPAIRMENT IN DOWN'S SYNDROME SUBJECTS” (University Court of The University of Dundee, priority 2008, published 2010)
Like-named read-outs stand apart in the source and are kept apart here.

Legend:
[1] = biological target: MAPK2/ERK2 (Homo sapiens, UniProt P28482); test: MAPK2/ERK2 33P kinase assay; type: biochemical; details: read-out: MAPK2/ERK2 activity as percentage of control without inhibitor
Experimental: (§1) All assays (25.5 μl) were carried out at room temperature (21° C.) and were linear with respect to time and enzyme concentrations under the conditions used. Assays were performed for 30 minutes except assays for LCK and PKB which were performed for 15 minutes using Multidrop Micro reagent dispensers (Thermo Electron Corporation, Waltham, Mass. 02454, USA) in a 96-well format. The concentration of […] [γ-^33P] ATP (800 cpm/pmol) in the assays was one of three concentrations (5, 20 or 50 μM) in order to be at or below Km for ATP for the enzyme. Assays were initiated with MgATP and stopped by addition of 5 μl of 0.5M orthophosphoric acid. Assays were then harvested onto P81 filterplates using a unifilter harvester (PerkinElmer, Boston, Mass. 02118, USA), with a wash buffer of 50 mM orthophosphoric acid. Filterplates were then air dried overnight. 10 μl of Microscint O was added per well prior to counting for radioactivity.
(§2) MKK1, JNK/SAPK1c, SAPK2a/p38, SAPK2b/p38β2, SAPK3/p38γ, SAPK4/p38δ, MAPK2/ERK2, MAPKAP-K1β, MAPKAP-K2, MSK1, PRAK, PKA, PKCα, PDK1, SGK, p70S6K, GSK3β, ROCK-II, PRK2, AMPK, CHK1, CHK2, CK2, PHK, LCK, were assayed according to Davies et al., (Davies, S. P., Reddy, H., Caivano, M. and Cohen, P. Biochem. J. 351, 95-105, 2000.
(§3) CSK and CDK2/cyclinA, were assayed according to Bain et al. (Bain J, McLauchlan H, Elliott M, Cohen P. Biochem J. 371, 199-204, 2003., except that ATP concentrations were either 5, 20 or 50 micromolar so that they were at or below the Km for ATP. The ATP concentrations used were as follows, 5 μM for assays of MKK1, SAPK3, SAPK4, GSK3β, PRK2 CK2 20 μm for assays of JNK, SAPK2β, MAPKAP-K2, MSK1, PRAK, PKA, […], PDK1, SGK, p70S6K, ROCK-II, CHK1, CHK2, CSK, CDK2, and 50 μM for assays of SAPK2a, MAPK2/ERK2, AMPK, LCK, PHK and MAPKAP-K1β.

[2] = biological target: T1, CHK1 (Homo sapiens, UniProt O14757); test: CHK1 33P kinase assay; type: biochemical; details: read-out: CHK1 activity as percentage of control without inhibitor
T1 sequence (O14757 1-476): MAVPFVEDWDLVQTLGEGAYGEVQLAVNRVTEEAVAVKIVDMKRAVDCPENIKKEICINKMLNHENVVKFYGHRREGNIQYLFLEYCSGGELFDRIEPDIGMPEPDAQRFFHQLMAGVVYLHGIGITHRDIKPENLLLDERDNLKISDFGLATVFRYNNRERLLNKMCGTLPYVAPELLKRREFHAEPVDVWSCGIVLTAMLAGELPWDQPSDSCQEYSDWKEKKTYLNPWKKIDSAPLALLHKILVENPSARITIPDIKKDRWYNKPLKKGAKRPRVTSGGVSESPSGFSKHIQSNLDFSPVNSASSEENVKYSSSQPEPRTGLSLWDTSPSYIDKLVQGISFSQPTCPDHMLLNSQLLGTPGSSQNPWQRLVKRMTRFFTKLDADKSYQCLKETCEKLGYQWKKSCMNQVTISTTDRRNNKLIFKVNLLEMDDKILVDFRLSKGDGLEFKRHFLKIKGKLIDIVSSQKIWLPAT
Experimental: as §1, §2, §3

MAPK2/ERK2, sequence (P28482 whole entry): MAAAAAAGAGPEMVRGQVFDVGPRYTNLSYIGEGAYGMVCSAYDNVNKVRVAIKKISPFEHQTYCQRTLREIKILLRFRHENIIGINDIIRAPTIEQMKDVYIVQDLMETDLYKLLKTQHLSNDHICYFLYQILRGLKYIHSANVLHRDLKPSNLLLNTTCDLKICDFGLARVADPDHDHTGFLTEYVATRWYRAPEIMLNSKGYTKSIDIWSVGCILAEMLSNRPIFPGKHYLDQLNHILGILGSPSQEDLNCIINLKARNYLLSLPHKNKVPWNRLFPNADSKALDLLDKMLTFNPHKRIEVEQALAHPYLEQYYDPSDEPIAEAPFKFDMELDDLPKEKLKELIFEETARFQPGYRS

`COc1ccc2c3c([nH]c2c1)C(C)=NCC3` [Harmaline] was tested, and the remaining activity at 1 µM ([1]; inhibitor 1 μM) was 80%, the remaining activity at 10 µM ([1]; inhibitor 10 μM) was 89% and the remaining activity at 1 µM [2] was 78%. It also gave a remaining activity at 10 µM [2] of 67%.
With `COc1ccc2c(c1)[nH]c1c(C)nccc12` [Harmine] the remaining activity at 1 µM [1] was 98%, the remaining activity at 10 µM [1] was 89% and the remaining activity at 1 µM [2] was 86%. For the same molecule, the remaining activity at 10 µM [2] was 86%.
In the case of `CC1=NCCc2c1[nH]c1cc(O)ccc21` [Harmalol], the remaining activity at 1 µM ([1]; inhibitor 1 μM) is reported as 88%, the remaining activity at 10 µM ([1]; inhibitor 10 μM) is reported as 85% and the remaining activity at 1 µM ([2]; inhibitor 1 μM) is reported as 93%. It also gave a remaining activity at 10 µM ([2]; inhibitor 10 μM) of 81%.
